What was measured:
Lepomis macrochirus = details: acute; duration: 96 hours; mortality
Canidae = details: chronic; duration: 52 weeks; oral; Dog Other; organ weight
Tagia sp. = details: acute; duration: 14 days; mortality
Apis mellifera = details: acute; duration: 48 hours; oral; unspecified; mortality
Oncorhynchus mykiss = details: chronic/long-term; duration: 95 days
Daphnia magna = details: chronic/long-term; duration: 21 days; reproduction
Colinus virginianus = details: acute, oral, mortality
Avena sativa = details: not reported; no effects
Bibionidae = details: chronic/long-term; duration: 28 days; other

In the case of `CC(COc1ccc(Oc2ccccc2)cc1)Oc1ccccn1` (centres undefined) [Pyriproxyfen], the LD50 (Rattus norvegicus; acute, oral, mortality) is reported as greater than 5000 mg/kg, the NOAEL (Rattus norvegicus; reproduction developmental, organ weight) is reported as 13.3 mg/kg-day and the LC50 (Lepomis macrochirus) is reported as greater than 0.27 mg/L. It also gave an NOAEL (Canidae) of 10 mg/kg-day, an LC50 (Tagia sp.) greater than 1000 mg/kg and an LD50 (Apis mellifera) greater than 74 µg/piece. For the same compound, the NOEC (Oncorhynchus mykiss) was 0.0043 mg/L, the NOEC (Daphnia magna) was 1.5e-05 mg/L and the LC50 (Colinus virginianus; diet) was greater than 863 mg/kg-day. For the same compound, the LD50 (Colinus virginianus) was greater than 1910 mg/kg, the LD50 (Anas platyrhynchos; acute, oral, unspecified, mortality) was greater than 1910 mg/kg and the NOEC (Anas platyrhynchos; reproductive) was 70.2 mg/kg-day. The LEL (Avena sativa) was 8000 g/ha and the NOEC (Bibionidae) was 0.01 mg/L.
